# Laboratory results published in patent US20220282304A1, “SAME-SAMPLE ANTIBIOTIC SUSCEPTIBILITY TEST AND RELATED COMPOSITIONS, METHODS AND SYSTEMS” (CALIFORNIA INSTITUTE OF TECHNOLOGY, priority 2021, published 2022).
# Tested on: Escherichia coli K12
# Assay: Digital same-sample filtration AST at two antibiotic concentrations (Example 13)
# Format: cell-based
# Details: for Both (number of wells) / Empty (number of wells) / Extracellular only (number of wells) / Intracellular only (number of wells): 19.0 to 21.2 minutes to centrifugation, 32 partitions, qPCR
# Protocol: A 96-well microtiter plate was prepared for the experiment by placing Mueller-Hinton Broth (MHB) growth media and one of three different concentrations of ertapenem (ETP) sodium salt into each well. 32 of the wells contained 0 μg/mL of ETP antibiotic and served as reference condition antibiotic exposures; pure water was added instead of ETP dissolved in pure water. Another 32 of the wells contained 0.417 μg/mL of ETP (for a final concentration of 0.25 μg/mL). The last 32 wells contained 3.33 μg/mL of ETP (for a final concentration of 2.0 μg/mL). The 64 wells containing some ertapenem constituted the treated condition antibiotic exposures.
# The inoculum was small enough that no detectable difference in the sample's optical density at 600 mm (OD600) was detectable by a spectrophotometer with a sensitivity of 0.01 absorbance units. After an incubation at 37° C., the media became turbid with an OD600 of 0.334 absorbance units after 3.5 hours of incubation.
# In this experiment, the number and volume of sample partitions was restricted, for logistical reasons, to 96 partitions 25 μL in volume, specifically the wells of a 96-well plate. A target loading density of 0.5 cells per partition was set. The contrived clinical sample was diluted by a factor of 9.97239*10^−7 via a three-step serial dilution to an estimated density of […].
# To begin the AST protocol, the diluted contrived clinical specimen was physically partitioned into the 96 samples by transferring 10 μL of the specimen, in 96 separate transfers (actually 8 transfers with a multichannel pipette), to each well of the 96-well microtiter plate containing ETP and MHB. Then, the entire plate was sealed with a RNase/DNase-free plastic, adhesive sealing membrane and placed on a thermal block set to 37° C. and shaking at 700 rpm.
# After 8 minutes of incubation at 37° C., the exposures were taken back to the lab bench. The entire volume of each antibiotic exposure was transferred to a Millipore® 96-well sterile polystyrene MultiScreenHTS® filter plate (Millipore-Sigma MSGVS2210). Each well of the filter plate contained a hydrophilic polyvinylidene fluoride (PVDF) filter membrane with a […]. A 96-well polypropylene microtiter plate was affixed to the bottom of the filter plate. The filter plate was promptly centrifuged at 2200 relative centrifugal force for 5.0 minutes to speed the passage of the antibiotic exposure sample through the filter and into 96-well microtiter plate. The collected fluid was called the “filtrate.” In total, between 19.0 and 21.2 minutes elapsed between the first addition of cells to the exposure volume and the start of the centrifugation. The total time elapsed differed slightly among wells because cells could not be manually added to all wells at the exact same time.
# 8 μL of each filtrate was transferred to new containers containing 6 μL of Lucigen DNA Extraction Buffer, vortexed, centrifuged briefly to collect liquid at the bottom of the tube, and then heated for 6 minutes at 65° C. and then 4 minutes at 98° C.
# After the creation of the filtrates, 30 μL of fresh MHB media was added to all filters. […] The purpose of this new volume of MHB was to wash away residual extracellular nucleic acids that might be confused for intracellular nucleic acids when the lysate was collected. The 30 μL of fresh MHB was centrifuged for 5 minutes at 2200 rcf into a clean 96-well plate, then discarded.
# Next, 20 μL of DNA Extraction Buffer was placed into all of the wells of the filter plate, on top of the filters. The filter plate was heated to 65° C. for 6 minutes, without shaking, on a ThermoMixer® flat surface heating block. Intracellular nucleic acids were released from lysed cells into the DNA Extraction Buffer fluid. Then, the filter plate was taped to a clean 96-well polypropylene microtiter plate and centrifuged at 2200 rcf for 5 minutes. The DEB fluid that flowed through the filter was collected in the microtiter plate below the filter plate. […]
structure (smiles),measurement,setting,value
"C[C@@H](O)[C@H]1C(=O)N2C(C(=O)O)=C(S[C@@H]3CN[C@H](C(=O)Nc4cccc(C(=O)O)c4)C3)[C@H](C)[C@H]12 [ETP, ertapenem]",susceptibility interpretation,"2.0 μg/mL condition, more exposure time or more cells needed for a conclusive result",more likely to be susceptible
same,proportion of lysis,"2.0 μg/mL condition, reference background 0/29",2/34
same,Intact (most likely number of cells),Treated 0.25 μg ETP/mL,26
same,Lysed (most likely number of cells),Treated 0.25 μg ETP/mL,0
same,Both (number of wells),Treated 0.25 μg ETP/mL,0
same,Empty (number of wells),Treated 0.25 μg ETP/mL,15
same,Extracellular only (number of wells),Treated 0.25 μg ETP/mL,0
same,Intracellular only (number of wells),Treated 0.25 μg ETP/mL,17
same,Intact (most likely number of cells),Treated 2.00 μg ETP/mL,32
same,Lysed (most likely number of cells),Treated 2.00 μg ETP/mL,2
same,Both (number of wells),Treated 2.00 μg ETP/mL,2
same,Empty (number of wells),Treated 2.00 μg ETP/mL,10
same,Extracellular only (number of wells),Treated 2.00 μg ETP/mL,0
same,Intracellular only (number of wells),Treated 2.00 μg ETP/mL,20
